Results taken from patent publication US6555541B1, “Substituted phenyl compounds with immunosuppressing activity and pharmaceutical compositions” (Astrazeneca UK Limited, priority 2000, dated 2003).
Where a name gives a salt, the structure may show the parent alone.

| SMILES | melting point |
| --- | --- |
| Cc1ccc(CN2CCNCC2)cc1NC(=S)CNc1ccc(F)c(F)c1 [Example 2, 2-(3,4-Difluoro-phenylamino)-N-(2-methyl-5-piperazin-1-ylmethyl-phenyl)-thioacetamide] | 72 to 82 °C (dec.) |
| Cc1c(Cn2ccnc2)cccc1NC(=O)CNc1ccc(F)c(F)c1 [Example 17, 2-(3,4-Difluorophenylamino)-N-(3-imidazol-1-ylmethyl-2-methylphenyl)acetamide] | 160 °C (dec.) |
| Cc1c(CN(C)C)cccc1NC(=O)CNc1ccc(F)c(F)c1 [Example 18, 2-(3,4-Difluorophenylamino)-N-(3-dimethylaminomethyl-2-methylphenyl)acetamide] | 144 °C (dec.) |
| Cc1ccc(CN2CCNCC2)cc1NC(=O)CNc1ccc(F)c(F)c1 (as salt: hydrochloride) [Example 1, 2-(3,4-Difluorophenylano)-N-(2-methyl-5-piperazin-1-ylmethyl-phenyl)-acetamide, trihydrochloride] | 232 to 248 °C (dec.) |
| Cc1cc(N2CCNCC2)ccc1NC(=O)CNc1ccc(F)c(F)c1 (as salt: hydrochloride) [Example 10, 2-(3,4-Difluoro-phenylamino)-N-(2-methyl-5-piperazin-1-yl-phenyl)-acetaniide, trihydrochloride] | > 230 °C |
| O=C(CNc1ccc(F)c(F)c1)Nc1cc(N2CCNCC2)ccc1Cl (as salt: hydrochloride) | 240 °C (dec.) |
